# Test system: P. aeruginosa isolates
# Format: cell-based, Pseudomonas aeruginosa
row,SMILES,Antibiotic resistance profile of isolates
1,CC(C)(O/N=C(\C(=O)N[C@@H]1C(=O)N2C(C(=O)[O-])=C(C[n+]3ccccc3)CS[C@H]12)c1csc(N)n1)C(=O)O [ceftazidime],resistance
2,C[C@@H](O)[C@H]1C(=O)N2C(C(=O)O)=C(S[C@@H]3CN[C@H](C(=O)N(C)C)C3)[C@H](C)[C@H]12 [meropenem],resistance

# Reference: US20240425938A1, “COMPOSITIONS AND METHODS FOR CHAR[…] FREQUENCY MUTATIONS” (The Broad Institute, Inc., priority 2022, published 2024)
